Reference: the NIST ThermoML archive (doi:10.1021/acs.jced.7b00221)

Assay: xn = mol fraction of the nth substance listed
Settings: 100 kPa, Liquid; for viscosity: Cone and plate viscometry; for mass density: Vibrating tube method

CCCCCCn1cc[n+](C)c1.N#Cc1ccc[n-]1 [1-hexyl-3-methylimidazolium 2-cyanopyrrolide] + CCCCCCCCCCCCCC[P+](CCCCCC)(CCCCCC)CCCCCC.O=S(=O)([N-]S(=O)(=O)C(F)(F)F)C(F)(F)F
viscosity [mPa·s]
Settings	278.15 K	283.15 K	288.15 K	293.15 K	298.15 K	303.15 K	308.15 K	313.15 K	318.15 K	323.15 K
x1 = 0.1	1166	806	568	410	303	229	176	138	110	89
x1 = 0.2	1261	867	605	435	320	241	185	145	115	93
x1 = 0.3	1258	851	589	419	307	230	176	137	109	87
x1 = 0.399	1299	876	602	426	310	231	177	137	109	88
x1 = 0.499	1275	846	575	404	292	216	164	127	100	81
x1 = 0.6	1379	905	612	423	304	224	169	130	102	82
x1 = 0.7	1410	910	603	416	295	216	162	125	97	78
x1 = 0.8	1397	877	571	387	271	196	146	112	87	69
x1 = 0.9	1461	893	566	374	257	183	135	101	79	62
x1 = 1	1540	902	553	355	239	167	122	91	70	55

CCCCCCCC[P+](CC)(CC)CC.O=[N+]([O-])c1cn[n-]c1 [triethyloctylphosphonium 4-nitropyrazolide] + CCCCCC[n+]1ccn(C)c1.O=S(=O)([N-]S(=O)(=O)C(F)(F)F)C(F)(F)F
Settings	mass density [kg/m3]	viscosity [mPa·s]
278.15 K, x1 = 0.126	–	267
278.15 K, x1 = 0.25	–	358
278.15 K, x1 = 0.499	–	680
278.15 K, x1 = 0.75	–	1046
278.15 K, x1 = 0.898	–	1242
283.15 K, x1 = 0.126	1340	191
283.15 K, x1 = 0.25	1296.5	251
283.15 K, x1 = 0.499	1209.6	456
283.15 K, x1 = 0.75	1124.3	682
283.15 K, x1 = 0.898	1074.4	804
283.15 K, x1 = 1	1040.7	–
288.15 K, x1 = 0.126	1335.5	140
288.15 K, x1 = 0.25	1292.3	180
288.15 K, x1 = 0.499	1205.8	314
288.15 K, x1 = 0.75	1120.9	457
288.15 K, x1 = 0.898	1071.2	535
288.15 K, x1 = 1	1037.7	–
293.15 K, x1 = 0.126	1331.1	106
293.15 K, x1 = 0.25	1288.2	133
293.15 K, x1 = 0.499	1201.9	223
293.15 K, x1 = 0.75	1117.5	317
293.15 K, x1 = 0.898	1068	369
293.15 K, x1 = 1	1034.6	–
295.15 K, x1 = 0.126	1329.4	–
295.15 K, x1 = 0.25	1286.5	–
295.15 K, x1 = 0.499	1200.4	–
295.15 K, x1 = 0.75	1116.1	–
295.15 K, x1 = 0.898	1066.8	–
295.15 K, x1 = 1	1033.4	–
298.15 K, x1 = 0.126	1326.7	82
298.15 K, x1 = 0.25	1284.1	102
298.15 K, x1 = 0.499	1198.2	164
298.15 K, x1 = 0.75	1114.1	227
298.15 K, x1 = 0.898	1064.8	263
298.15 K, x1 = 1	1031.5	–
303.15 K, x1 = 0.126	1322.4	66
303.15 K, x1 = 0.25	1280	79
303.15 K, x1 = 0.499	1194.5	124
303.15 K, x1 = 0.75	1110.7	168
303.15 K, x1 = 0.898	1061.7	192
303.15 K, x1 = 1	1028.5	–
308.15 K, x1 = 0.126	1318.1	53
308.15 K, x1 = 0.25	1275.9	63
308.15 K, x1 = 0.499	1190.9	96
308.15 K, x1 = 0.75	1107.5	127
308.15 K, x1 = 0.898	1058.6	145
308.15 K, x1 = 1	1025.5	–
313.15 K, x1 = 0.126	1313.8	–
313.15 K, x1 = 0.25	1271.8	52
313.15 K, x1 = 0.499	1187.2	73
313.15 K, x1 = 0.75	1104.2	99
313.15 K, x1 = 0.898	1055.5	110
313.15 K, x1 = 1	1022.6	–
318.15 K, x1 = 0.126	1309.6	–
318.15 K, x1 = 0.25	1267.7	–
318.15 K, x1 = 0.499	1183.5	59
318.15 K, x1 = 0.75	1100.9	77
318.15 K, x1 = 0.898	1052.5	83
318.15 K, x1 = 1	1019.6	–
323.15 K, x1 = 0.126	1305.4	–
323.15 K, x1 = 0.25	1263.7	–
323.15 K, x1 = 0.499	1179.9	–
323.15 K, x1 = 0.75	1097.6	62
323.15 K, x1 = 0.898	1049.4	67
323.15 K, x1 = 1	1016.7	–
328.15 K, x1 = 0.126	1301.2	–
328.15 K, x1 = 0.25	1259.6	–
328.15 K, x1 = 0.499	1176.2	–
328.15 K, x1 = 0.75	1094.3	–
328.15 K, x1 = 0.898	1046.3	–
328.15 K, x1 = 1	1013.8	–
333.15 K, x1 = 0.126	1297	–
333.15 K, x1 = 0.25	1255.5	–
333.15 K, x1 = 0.499	1172.6	–
333.15 K, x1 = 0.75	1091.1	–
333.15 K, x1 = 0.898	1043.3	–
333.15 K, x1 = 1	1010.8	–
338.15 K, x1 = 0.126	1292.8	–
338.15 K, x1 = 0.25	1251.5	–
338.15 K, x1 = 0.499	1169	–
338.15 K, x1 = 0.75	1087.8	–
338.15 K, x1 = 0.898	1040.2	–
338.15 K, x1 = 1	1007.9	–
343.15 K, x1 = 0.126	1288.7	–
343.15 K, x1 = 0.25	1247.5	–
343.15 K, x1 = 0.499	1165.3	–
343.15 K, x1 = 0.75	1084.6	–
343.15 K, x1 = 0.898	1037.2	–
343.15 K, x1 = 1	1005	–
348.15 K, x1 = 0.126	1284.5	–
348.15 K, x1 = 0.25	1243.5	–
348.15 K, x1 = 0.499	1161.7	–
348.15 K, x1 = 0.75	1081.3	–
348.15 K, x1 = 0.898	1034.1	–
348.15 K, x1 = 1	1002.1	–
353.15 K, x1 = 0.126	1280.3	–
353.15 K, x1 = 0.25	1239.5	–
353.15 K, x1 = 0.499	1158.1	–
353.15 K, x1 = 0.75	1078.1	–
353.15 K, x1 = 0.898	1031.1	–
353.15 K, x1 = 1	999.2	–
